We go through 14 compounds from ChEMBL document CHEMBL4028819, “Synthesis, antiplatelet and antithrombotic activities of resveratrol derivatives with NO-donor properties” (Bioorg Med Chem Lett, 2017).

The inhibition is the drop in the measured response relative to a control, in per cent.

The source made the active and inactive calls. The calls are words filed in the database; no cut-off is given here.

In data set [1] the test system is Mus musculus. In words: Toxicity in Swiss albino mouse assessed as bleeding time at 100 umol/10 g administered orally 60 mins prior to test by tail transection method. To be noted: in vivo, po, 1 h.
The subject of data set [2] is Platelet. Description: Antiplatelet activity in Wistar rat platelet rich plasma assessed as inhibition of collagen-induced platelet aggregation at 150 uM preincubated for 1 min followed by collagen addition by aggregometric analysis relative to control. In kind it is functional.
In data set [3] the test system is Platelet. Description: Antiplatelet activity in Wistar rat platelet rich plasma assessed as inhibition of arachidonic acid-induced platelet aggregation at 150 uM preincubated for 1 min followed by arachidonic acid addition by aggregometric analysis relative to control. In kind it is functional.
The subject of data set [4] is Platelet. In words: Antiplatelet activity in Wistar rat platelet rich plasma assessed as inhibition of ADP-induced platelet aggregation at 150 uM preincubated for 1 min followed by ADP addition by aggregometric analysis relative to control. The format is functional.
In data set [5] the test system is Mus musculus. Description: Anti-thrombotic activity in Swiss albino mouse assessed as protection against collagen/epinephrine-induced pulmonary thromboembolism at 100 umol/10 g, po administered as single dose pretreated for 60 mins followed by thrombotic challenge relative to control. In kind it is functional.
Data set [6] is described as follows: Induction of NO release assessed as nitrite formation in aqueous buffer at pH 7.4 measured after 1 hr in presence of L-cysteine by Griess assay. Also on record: concentration or dose not given beside the values. A general note: Nitrite, measured by Griess reagent, commonly stands in for NO production.

For the compound `O=C(N/N=C/c1ccc(O)cc1)c1ccc(O)cc1`, in data set [1], the Time came out at 200 s. The inhibition at 150 µM in data set [2] was determined as 44%; in data set [3] it was 79.6%; in data set [4] it was 31.3%. Also, the Activity in data set [5] is on record as 40%.
`O=C(N/N=C/c1cccc(Oc2no[n+]([O-])c2S(=O)(=O)c2ccccc2)c1)c1cccc(O)c1`: the inhibition at 150 µM in data set [2] stood at 44.8%; in data set [3] it was 25%; in data set [4] it was 88.4%. Moreover, the Activity in data set [6] came to 24.1%.
In the case of `O=C(N/N=C/c1ccc(O)cc1)c1cccc(O)c1`, the inhibition at 150 µM came to 19.1% in data set [2], 72.8% in data set [3] and 60.3% in data set [4].
In the case of `O=C(N/N=C/c1cccc(O)c1)c1ccc(O)cc1`, the inhibition at 150 µM in data set [2] stood at 33.1%; in data set [3] it was 74.1%; in data set [4], 42.4%.
For the compound `O=C(N/N=C/c1cccc(O)c1)c1ccccc1O`, the inhibition at 150 µM in data set [2] came out at 27.5%; in data set [3] it was 60.8%; in data set [4] it was 56%.
As to `O=C(N/N=C/c1cccc(Oc2no[n+]([O-])c2S(=O)(=O)c2ccccc2)c1)c1ccccc1O`, the results for the inhibition at 150 µM in data set [2], in data set [3] and in data set [4] were 25.5%, 17% and 84.2%, respectively. For the same compound, in data set [6], the Activity was 25.3%.
Turning to `O=C(N/N=C/c1cccc(O)c1)c1cccc(O)c1`, the results for the inhibition at 150 µM in data set [2], in data set [3] and in data set [4] were 29.1%, 48.2% and 46.1%, respectively.
As for `O=C(N/N=C/c1ccc(Oc2no[n+]([O-])c2S(=O)(=O)c2ccccc2)cc1)c1ccccc1O`, the inhibition at 150 µM stood at 34.4% in data set [2], 8.5% in data set [3] and 74.3% in data set [4]. The Activity in data set [6] was 24.5%.
As to `O=C(N/N=C/c1ccc(O)cc1)c1ccccc1O`, the inhibition at 150 µM in data set [2] amounted to 35.9%; in data set [3], 42.5%; in data set [4], 58.2%.
For the compound `O=C(N/N=C/c1cccc(Oc2no[n+]([O-])c2S(=O)(=O)c2ccccc2)c1)c1ccc(O)cc1`, the inhibition at 150 µM is 39.9% in data set [2], 14.3% in data set [3] and 91.9% in data set [4]. For the same compound, the Activity in data set [6] came to 27.4%.
Consider `O=C(N/N=C/c1ccc(Oc2no[n+]([O-])c2S(=O)(=O)c2ccccc2)cc1)c1cccc(O)c1`, for which the inhibition at 150 µM in data set [2] was 54.3%; in data set [3], 37.3%; in data set [4] it was 82.2%. Further, in data set [6], the Activity stood at 26.2%.
For `O=S(=O)(c1ccccc1)c1no[n+]([O-])c1S(=O)(=O)c1ccccc1`, the inhibition at 150 µM in data set [2] was determined as 29.7%; in data set [3], 6.7%; in data set [4] it was 89.8%. Moreover, the Activity in data set [6] was 32.1%. Moreover, the outcome in data set [5] was inactive.
On to `CC(=O)Oc1ccccc1C(=O)O` [ASPIRIN], for which the Time in data set [1] stood at 800 s. Also, the inhibition at 150 µM was determined as 63.4% in data set [2], 28.9% in data set [3] and 27.7% in data set [4]. Further, the Activity in data set [5] stood at 40%.
As for `O=C(N/N=C/c1ccc(Oc2no[n+]([O-])c2S(=O)(=O)c2ccccc2)cc1)c1ccc(O)cc1`, in data set [1], the Time came to 380 s. The values for the inhibition at 150 µM in data set [2], in data set [3] and in data set [4] were 72.2%, 20.3% and 87.1%, respectively. For the same compound, the Activity is 25.8% in data set [6] and 80% in data set [5].
